This note sets out measurements from publication PMC10534724, “Interaction of ALK Inhibitors with Polyspecific Organic Cation Transporters and the Impact of Substrate-Dependent Inhibition on the Prediction of Drug–Drug Interactions” (Pharmaceutics, 2023).

Molecules are shown by their SMILES. Read-outs that look alike come from different tables or passages of the source.

For the experiment, the target named is T1, hMATE2-K (Homo sapiens, UniProt Q86VL8).
T1 construct: expressed in transfected cells
T1 sequence (Q86VL8 1-566 isoform Q86VL8-3): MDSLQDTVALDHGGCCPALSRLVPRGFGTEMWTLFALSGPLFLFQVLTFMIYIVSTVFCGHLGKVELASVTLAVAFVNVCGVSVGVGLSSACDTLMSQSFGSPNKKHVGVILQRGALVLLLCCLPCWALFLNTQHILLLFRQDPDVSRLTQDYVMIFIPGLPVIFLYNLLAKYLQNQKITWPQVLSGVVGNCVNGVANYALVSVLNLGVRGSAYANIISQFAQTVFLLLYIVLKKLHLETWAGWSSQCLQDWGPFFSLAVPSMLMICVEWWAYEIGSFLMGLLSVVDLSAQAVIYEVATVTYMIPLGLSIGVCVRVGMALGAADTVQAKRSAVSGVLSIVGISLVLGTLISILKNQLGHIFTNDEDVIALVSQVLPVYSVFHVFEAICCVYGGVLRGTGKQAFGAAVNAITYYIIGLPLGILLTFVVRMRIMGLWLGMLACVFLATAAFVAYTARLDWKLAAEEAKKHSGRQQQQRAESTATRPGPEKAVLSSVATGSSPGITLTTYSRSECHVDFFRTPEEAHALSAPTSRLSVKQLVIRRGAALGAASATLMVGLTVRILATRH
Briefly: Inhibition of hMATE2-K-mediated substrate uptake in transfected HEK293 cells (pH 8.0). Type of experiment: in vitro ADME. Particulars: for IC50: HEK293, 2 min, 37 °C, mean ± SD; for In vivo DDI study recommendation, hMATE2-K: FDA-recommended criteria.

One may read the IC50 as the point on the concentration scale where inhibition reaches its midpoint. On to `COc1cc(N2CCC(N3CCN(C)CC3)CC2)ccc1Nc1ncc(Cl)c(Nc2ccccc2P(C)(C)=O)n1` [Brigatinib], for which the “substrate dependency, hMATE2-K: more potent with metformin than with mIBG” value (IC50 ratio mIBG/metformin) was “approximately 4 fold”. The IC50 by setting is: (substrate 1 µM [3H]MPP+, read-out: IC50, hMATE2-K-mediated MPP+ uptake) more than 300 µM; (substrate 8.9 µM [14C]metformin, read-out: IC50, hMATE2-K-mediated metformin uptake) 38.3 ± 1.7 µM. Further, the “In vivo DDI study recommendation, hMATE2-K” value was “No” (substrate MPP+), “No” (substrate mIBG) and “No” (substrate metformin).
